Test results: article PMC3025705 (European journal of nuclear medicine and molecular imaging, 2010)

Test system: human sst2 receptor
Assay: Immunofluorescence microscopy based sst2 internalization assay
Format: cell-based
Details: HEK-sst2 cells, 30 min at 37°C, 10 nM

sst2 internalization by positive control: sub-maximal internalization effect
Substance: Tyr^3-octreotide [TOC]
